Results published in patent publication EP2646421B1, “7-NITRO-5-PHENYL-1-(PYRROLIDIN-1-YLMETHYL)-1H-BENZO[E][1,4]DIAZEPIN-2(3H)-ONE AND OTHER BENZODIAZEPINE DERIVATIVES” (Pignataro, Giuseppe, priority 2010, dated 2012).

How the values were obtained:
Format in all cases: cell-based
NCX1 = molecular target: T1, NCX1 (Canis lupus familiaris, UniProt P23685); experiment: 45Ca2+ radiotracer fluxes (efflux/influx) in BHK-NCX1 cells
T1 construct: expressed in transfected cells
Procedure: (§1) The activity of NCX was established by means of three different subclones of baby hamsted kidney (BHK) cells that were stably transfected with one of each NCX isoforms, named BHK-NCX1, BHK-NCX2 and BHK-NCX3. These cell lines were grown on plastic dishes in a mix of DMEM and Ham's F12 media (1:1) (Gibco, Invitrogen, MI, Italy) supplemented with 5% fetal bovine serum, 100 U/ml penicillin, and 100 µg/ml streptomycin (Sigma, St. Louis, Missouri, USA). Cells were cultured in a humidified 5% CO2 atmosphere and at the temperature of 37°C.
(§2) The activity of the Na^+/Ca^2+ exchanger was measured by means of ^45Ca^2+ radiotracer variations in the cytoplasm of cells exposed to a protocol stimulating the forward or the reverse mode of the antiporter. The BHK cells expressing each mutated or non-mutated NCX isoform were cultured in 12-well dishes and incubated in 145 mM NaCl for 10 minutes and then in a medium containing only 145 mM N-Methyl D-glucamine (NMDG) and 10 µM of ^45Ca^2+. This rapid substitution of the medium from a high level of Na^+ to another one without Na^+ allow the ^45Ca^2+ influx (reverse mode). Before the medium substitution cells was incubated with 1 mM ouabain, a Na^+/K^+ pump inhibitor, and 10 µM monensin, a ionophore for extracellular Na^+. After 30 seconds incubation, cells were washed with an ice-cold solution containing 2 mM La^3+ to stop ^45Ca^2+ uptake. The medium was removed and cells were subsequently lysed with 0.1 N NaOH and aliquots were taken to determine radioactivity and protein content.
(§3) In order to measure NCX activity in the forward mode, cells were firstly loaded with ^45Ca^2+ and subsequently exposed to a chemical protocol to stimulate the efflux of the radiotracer in the extracellular medium. In particular, cells were loaded with ^45Ca^2+ by using a solution containing 1 µM ionomycin, 145 mM Na^+ and ^45Ca^2+. Next, cells were exposed to a Ca^2+-free solution containing 2 mM EGTA. One µM thapsigargin, a Ca^2+-ATPase inhibitor, was present in both solutions in order to prevent ^45Ca^2+ influx in intracellular organelles. After 60 second, cells were lysed with […] NaOH and aliquots were taken to determine cytoplasmatic radioactivity.
Cells were incubated for 30 minutes with different neurounina-1 concentrations.

NCX3 = molecular target: T2, NCX3 (Rattus norvegicus, UniProt P70549); experiment: 45Ca2+ radiotracer fluxes (efflux/influx) in BHK-NCX3 cells
T2 construct: expressed in transfected cells
T2 sequence (P70549 31-927): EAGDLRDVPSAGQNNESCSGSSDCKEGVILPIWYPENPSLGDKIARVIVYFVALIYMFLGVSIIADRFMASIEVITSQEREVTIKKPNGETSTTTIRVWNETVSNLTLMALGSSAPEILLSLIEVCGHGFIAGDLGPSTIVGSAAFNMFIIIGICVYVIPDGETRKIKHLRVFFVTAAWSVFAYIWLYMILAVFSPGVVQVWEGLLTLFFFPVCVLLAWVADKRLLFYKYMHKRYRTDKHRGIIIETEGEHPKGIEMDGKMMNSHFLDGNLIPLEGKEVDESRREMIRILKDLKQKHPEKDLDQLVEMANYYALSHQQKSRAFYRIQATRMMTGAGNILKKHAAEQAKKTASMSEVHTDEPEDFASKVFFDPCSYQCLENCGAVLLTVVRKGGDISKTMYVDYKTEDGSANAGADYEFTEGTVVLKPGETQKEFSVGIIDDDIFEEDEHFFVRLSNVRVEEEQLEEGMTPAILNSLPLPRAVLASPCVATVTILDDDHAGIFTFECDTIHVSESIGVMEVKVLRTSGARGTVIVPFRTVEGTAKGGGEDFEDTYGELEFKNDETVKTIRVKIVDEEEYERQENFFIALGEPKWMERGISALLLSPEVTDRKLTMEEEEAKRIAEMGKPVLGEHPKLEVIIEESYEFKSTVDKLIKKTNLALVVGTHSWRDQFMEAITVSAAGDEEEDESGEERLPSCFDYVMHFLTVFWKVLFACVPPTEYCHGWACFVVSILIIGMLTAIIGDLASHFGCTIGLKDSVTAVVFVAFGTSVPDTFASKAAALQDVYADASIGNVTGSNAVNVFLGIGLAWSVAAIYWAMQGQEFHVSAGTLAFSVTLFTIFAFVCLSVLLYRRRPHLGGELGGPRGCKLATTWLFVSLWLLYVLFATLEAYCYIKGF
Procedure: as §1, §2
as §3, with “One µM thapsigargin, a Ca^2+-ATPase inhibitor, was present in both solutions in order to prevent ^45Ca^2+ influx in intracellular organelles.” left out, “radioactivity. […]” for “radioactivity.”

N1-109/133 = molecular target: T3, N1-109/133 (Canis lupus familiaris, UniProt P23685, N157G/T159I/V150L); experiment: Na+-dependent 45Ca2+ uptake and efflux on NCX1/NCX3 chimera; settings: 10 nM; NCX1 region 109-133 (α1) substituted with NCX3 segment
T3 construct: expressed in transfected cells
T3 sequence (P23685 33-970 V150L/N157G/T159I): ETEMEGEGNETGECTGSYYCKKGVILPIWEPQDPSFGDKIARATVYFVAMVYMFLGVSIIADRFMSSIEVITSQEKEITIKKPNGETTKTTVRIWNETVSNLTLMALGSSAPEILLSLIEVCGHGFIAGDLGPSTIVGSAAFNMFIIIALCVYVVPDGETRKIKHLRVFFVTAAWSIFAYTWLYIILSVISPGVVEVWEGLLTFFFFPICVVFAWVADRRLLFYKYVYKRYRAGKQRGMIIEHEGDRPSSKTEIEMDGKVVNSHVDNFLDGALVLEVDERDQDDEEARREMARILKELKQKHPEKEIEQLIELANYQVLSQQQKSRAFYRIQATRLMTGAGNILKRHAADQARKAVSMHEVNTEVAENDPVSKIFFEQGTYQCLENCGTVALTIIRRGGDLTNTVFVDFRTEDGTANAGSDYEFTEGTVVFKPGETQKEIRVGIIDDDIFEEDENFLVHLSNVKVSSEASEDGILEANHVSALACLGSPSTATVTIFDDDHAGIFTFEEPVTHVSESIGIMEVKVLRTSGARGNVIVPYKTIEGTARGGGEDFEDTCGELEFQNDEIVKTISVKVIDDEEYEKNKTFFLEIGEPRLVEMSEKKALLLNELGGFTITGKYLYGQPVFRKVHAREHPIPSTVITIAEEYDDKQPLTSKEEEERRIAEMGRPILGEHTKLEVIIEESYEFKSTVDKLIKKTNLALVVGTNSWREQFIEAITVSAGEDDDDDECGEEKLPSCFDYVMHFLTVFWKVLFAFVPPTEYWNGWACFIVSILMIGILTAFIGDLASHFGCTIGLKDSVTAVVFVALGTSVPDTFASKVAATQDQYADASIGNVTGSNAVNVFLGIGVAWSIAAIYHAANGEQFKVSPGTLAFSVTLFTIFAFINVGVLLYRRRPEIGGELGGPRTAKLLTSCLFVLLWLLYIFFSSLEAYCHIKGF
Description: (§4) To deeper investigate on the regions and amino acids present on NCX1 responsible for the interaction with neurounina-1 compound, we utilized chimeric and site-mutated proteins. In particular, we generate chimeric proteins with a large sequence of NCX1 and some regions of NCX3 protein. […] By using the chimeric technique it is possible to determine the importance of NCX1 regions by substituting with analogue segments of NCX3 protein. […] Therefore, these two regions result to be involved in the pharmacological modulation of NCX1 from neurounina-1 compound.
(§5) All experiments aimed to identify the binding site of neurounina-1 were performed on BHK cells stably transfected with a single NCX chimera or mutant.
as §2
(§6) In order to measure NCX activity in the forward mode, cells were firstly loaded with ^45Ca^2+ and subsequently exposed to a chemical protocol to stimulate the efflux of the radiotracer in the extracellular medium. […] After 60 second, cells were lysed with […] NaOH and aliquots were taken to determine cytoplasmatic radioactivity.

N1-788/829 = molecular target: T4, N1-788/829 (Canis lupus familiaris, UniProt P23685, L840F/Q858V/T855L/V852A); experiment: as above; settings: 10 nM; NCX1 region 788-829 (α2) substituted with NCX3 segment
T4 construct: expressed in transfected cells
T4 sequence (P23685 33-970 L840F/V852A/T855L/Q858V): as the sequence (P23685 33-970 V150L/N157G/T159I) above, with L118V, G125N, I127T, L808F, V820A, T823L, Q826V counted along it
Description: as §4, §5, §2, §6

[1] = tested on: N3-(109/133-788/829) chimera; experiment: as above; settings: 10 nM; NCX3 with α1 and α2 regions of NCX1
Description: as §4, §5, §2, §6

NCX1 L808F = molecular target: T5, NCX1 L808F (Canis lupus familiaris, UniProt P23685, L840F); experiment: NCX1 point mutant activity (45Ca2+ uptake and Fura-2); settings: single mutation, functional exchanger
T5 construct: expressed in transfected cells
T5 sequence (P23685 33-970 L840F): as the sequence (P23685 33-970 V150L/N157G/T159I) above, with L118V, G125N, I127T, L808F counted along it
Procedure: (§7) To identify the critical residues involved in drug sensitivity between NCX1 and NCX3 proteins, each residue in NCX1, in the regions α1 and α2, was substituted with the corresponding residue in NCX3.
as §5
as §2, with “After 30 seconds incubation, cells were washed with an ice-cold solution containing 2 mM La^3+ to stop ^45Ca^2+ uptake.” left out
(§8) Briefly, BHK cells wild type and/or BHK trasnsfected with NCX mutants, grown on glass coverslips, were loaded with Fura-2 acetoxymethyl ester (Fura-2AM) (10 µM) for 30 minutes at 37°C in normal Krebs solution containing the following (in mM): 5.5 KCI, 160 NaCl, 1.2 MgCl2, 1.5 CaCl2, 10 glucose, and 10 Hepes-NaOH, pH 7.4. […] Fura-2 fluorescence intensity was measured every 3 seconds. […] NCX activity was evaluated as Ca2+ uptake through the reverse mode by switching the normal Krebs medium containing thapsigargi (1µM) to Na^+-deficient NMDG+ medium (Na^+-free) containing (in mM): 5.5 KCI, 147 N-Methyl glucamine, 1.2 MgCl2, 1.5 CaCl2, 10 glucose, and 10 Hepes-NaOH (pH 7.4). All the results are presented as percentage of cytosolic Ca^2+ concentration increase above basal values and expressed as mean± S.E.M.

NCX1 N124G = molecular target: T6, NCX1 N124G (Canis lupus familiaris, UniProt P23685, N157G); experiment: as above; settings: single mutation, functional exchanger
T6 construct: expressed in transfected cells
T6 sequence (P23685 33-970 N157G): as the sequence (P23685 33-970 V150L/N157G/T159I) above, with L118V, I127T counted along it
Procedure: as §7, §5
as §2, with “After 30 seconds incubation, cells were washed with an ice-cold solution containing 2 mM La^3+ to stop ^45Ca^2+ uptake.” left out
as §8

NCX1 V117L = molecular target: T7, NCX1 V117L (Canis lupus familiaris, UniProt P23685, V150L); experiment: as above; settings: single mutation, functional exchanger
T7 construct: expressed in transfected cells
T7 sequence (P23685 33-970 V150L): as the sequence (P23685 33-970 V150L/N157G/T159I) above, with G125N, I127T counted along it
Procedure: as §7, §5
as §2, with “After 30 seconds incubation, cells were washed with an ice-cold solution containing 2 mM La^3+ to stop ^45Ca^2+ uptake.” left out
as §8

[2] = 45Ca2+ radiotracer, forward mode
[3] = 45Ca2+ radiotracer, reverse mode
[4] = forward and reverse mode, patch clamp, Fura-2 microfluorimetry and 45Ca2+ fluxes (summary)

T1 sequence (P23685 33-970): as the sequence (P23685 33-970 V150L/N157G/T159I) above, with L118V, G125N, I127T counted along it

O=C1CN=C(c2ccccc2)c2cc([N+](=O)[O-])ccc2N1CN1CCCC1 [neurounina-1, 7-nitro-5-phenyl-1-(pyrrolidin-1-ylmethyl)-1H-benzo[e][1,4]diazepin-2(3H)-one]
increase of forward mode of NCX1 activity (NCX1; [2]): 70%
increase of reverse mode NCX1 activity (NCX1; [3]): 40%
EC50 (NCX1; EC50 NCX1, reverse mode, 45Ca2+ radiotracer, reverse mode): 1.1 nM
EC50 (NCX1; EC50 for NCX1, forward mode, 45Ca2+ radiotracer, forward mode): 1.4 nM
EC50 (NCX1; EC50 su NCX1, from the functional assays (summary)): 1 to 2 nM
NCX1 activity (NCX1; [4]): increases, in a dose-dependent manner
activity of NCX3, forward mode (NCX3; [2]): did not significantly affect
activity of NCX3, reverse mode (NCX3; [3]): did not affect
NCX3 activity (NCX3; [4]): did not exert any effect
pharmacological effect on N1-109/133 chimera (N1-109/133): removed the pharmacological effect
pharmacological effect on N1-788/829 chimera (N1-788/829): removed the pharmacological effect
activity of N3-(109/133-788/829) chimera [1]: significantly increased activity
sensitivity of NCX1 mutant L808F (NCX1 L808F): insensible
sensitivity of NCX1 mutant N124G (NCX1 N124G): insensible
sensitivity of NCX1 mutant V117L (NCX1 V117L): insensible
